Test results: patent US11953435B2, “Zinc-responsive fluorophores” (Northwestern University, priority 2019, dated 2024)

Legend:
[1] = Stability of ZincBY-4 over 12 h by fluorescence intensity; assay type: physicochemical; settings: for retention of fluorescence intensity after 12 hours: 10 mM glutathione (GSH); for fluorescence intensity after 12 hours: absence of GSH
Experimental: (§1) Aqueous solutions were prepared by using de-ionized water with resistivity […], obtained using a Milli-Q water purification system. In order to properly compare the photophysical properties of ZincBY-2, ZincBY-3, and ZincBY-4 to ZincBY-1, the photophysical properties of ZincBY-1 we remeasured. […] Stock solutions of ZincBY-1, ZincBY-2, ZincBY-3, and ZincBY-4 were prepared at concentrations of 5 mM and stored at −20° C. in aliquots that were used immediately after thawing for each experiment. Unless otherwise stated, all spectroscopic methods were conducted in aqueous buffer containing 50 mM HEPES (pH 7.2) and 0.1 M KNO3. UV-visible spectra were acquired on a PerkinElmer Lambda 650 UV/Vis spectrophotometer using quartz cuvettes from Starna (1 cm path length, 10 cm path length used in extinction coefficient and quantum yield determination). Fluorescence spectra were acquired using a PerkinElmer LS 55 fluorescence spectrophotometer. For measurements containing zinc, 99.0% ZnNO3 hexahydrate (final concentration 5 μM) was used. For experiments analyzing apo probes, N,N,N′,N′-Tetrakis(2-pyridylmethyl)ethylenediamine (TPEN) (final concentration 5 μM) was added to solution. Quantum Yield and Extinction Coefficient Determination. Quantum yields for apo and holo ZincBY-1, ZincBY-2, ZincBY-3, and ZincBY-4 were determined by plotting absorbance vs. fluorescence intensity of solutions containing ZincBY-1, ZincBY-2, ZincBY-3, or ZincBY-4 at probe concentrations ranging from 50-250 nM. […] Fluorescein dissolved in 0.1 N NaOH was used as the quantum yield standard, using a literature-determined quantum yield of 0.95.^3 For all fluorophore solutions, fluorescence excitation was set at 490 nm and fluorescence emission was integrated from 510 nm to 650 nm. […] Fluorescence spectra were recorded using zinc probes (ZincBY-1, ZincBY-2, ZincBY-3, or ZincBY-4; 200 nM) and ZnSO4 (various concentrations). […] Free Zn^2+ was calculated according to a previously reported method (Ref. B4; incorporated by reference in its entirety). […] The fluorescence spectra of zinc probes (ZincBY-2, ZincBY-3, or ZincBY-4; 200 nM) wasere measured at various pH values (4.5-11). […] The fluorescence spectra of zinc probes (ZincBY-2, ZincBY-3, or ZincBY-4; 200 nM) were measured in the presence an excess of metal ion including 1 mM KNO3, 1 mM NaNO3, 1 mM CaSO4, 1 mM MgSO4, 15 μM MnSO4, 15 μM (NH4)2Fe(SO4)2, 15 μM NH4Fe(SO4)2, 15 μM CoSO4, 15 μM NiSO4, 15 μM CuSO4, 15 μM [Cu(CH3CN)4]PF6, 15 μM CdSO4, 15 μM Hg(NO3)2, 15 μM Pb(NO3)2, or 15 μM ZnSO4. The fluorescence spectra were compared to that of ZincBY-2 (200 nM), ZincBY-3 (200 nM), or ZincBY-4 (200 nM) in the presence of 10 μM TPEN. […] A log P value for each probe was determined by agitating nanomolar solutions of each probe in a 1:1 mixture of HEPES buffer and 1-octanol. […]

[2] = Photophysical properties in solvents of varied dielectric constants (water/acetonitrile); assay type: physicochemical
Experimental: as §1

CC(=O)NCCOc1ccc2n1[B-](F)(F)[N+]1=C(N(CCN(Cc3ccccn3)Cc3ccccn3)Cc3ccccn3)C=CC1=C2c1c(C)cc(C)cc1C [ZincBY-4, N-(2-((7-((2-(bis(pyridin-2-ylmethyl)amino)ethyl)(pyridin-2-ylmethyl)amino)-5,5-difluoro-10-mesityl-5H-5λ4,6λ4-dipyrrolo[1,2-c:2′,1′-f][1,3,2]diazaborinin-3-yl)oxy)ethyl)acetamide]
retention of fluorescence intensity after 12 hours ([1]; apo): 40%
fluorescence intensity after 12 hours ([1]; apo): 7%
retention of fluorescence intensity after 12 hours ([1]; holo): 97%
fluorescence intensity after 12 hours ([1]; holo): 83%
emission maximum wavelength as the dielectric constant decreases ([2]; apo): does not change
fluorescence intensity as the dielectric constant changes ([2]; apo): does change in response to dielectric constant
emission maximum wavelength as the dielectric constant decreases ([2]; holo): 575 nm
fluorescence intensity as the dielectric constant changes ([2]; holo): does not change as the dielectric constant changes
